Measurements from patent US10654836B2, “Pyrimidine derivative, method for preparing same and use thereof in medicine” (Zhejiang Hisun Pharmaceutical Co., Ltd., priority 2016, dated 2020).

Assays:
[1] = tested on: hepatocellular carcinoma tumor cell Huh7 xenografts; test: Growth inhibition of Huh7 xenografts in tumor-bearing BALB/c nude mice; type: in vivo; details: bid
Protocol: On day 0, Huh7 cells were cultured in DMEM medium containing 10% of fetal bovine serum, 100 U of penicillin, and 100 μg/mL of streptomycin. And cultured in an incubator of 37° C., 5% CO2.
Each mouse was inoculated subcutaneously in the right axilla with 150 μL of cell suspension (5.0×10^6 cells/mouse) under sterile conditions. On day 12 after inoculation, when the tumor grew to a volume of 200-300 mm^3, mice with similar tumor volume and good shape were selected (the shape was as single spherical as possible, no irregular shape or multiple tumors gathered together) and divided into 5 groups, each group had 9 mice.
(§1) Each group of animals was administrated (intraperitoneal injection (ip) or oral administration (po)) a test substance twice a day (bid) at a fix time per day according to the body weight of the animals. The first dose was administered on the day of grouping ([…]), and continued for 22 days, the body weight of the animals was recorded daily.
The formation of tumor in the inoculated part of each group of animals was observed. The long diameter (Y) and short diameter (X) of the tumor nodules were measured twice a week using vernier calipers and calculated according to the following formula: Volume of tumor nodules(V): V=(X^2Y)/2.
Evaluation index of antitumor activity: tumor growth inhibition rate TGI (%), relative tumor proliferation rate T/C (%).
The relative tumor volume (RTV) is calculated as: RTV=100×TVt/TVinitial
wherein, TVinitial is the tumor volume measured at the time of grouping administration; TVt is the tumor volume at each measurement during administration.
The calculation formula for the relative tumor proliferation rate (% T/C) is: % T/C=100%×(RTVT/RTVC)
wherein, RTVT represents RTV of the treatment group; RTVC represents RTV of the solvent control group.
wherein, TVt(T) represents the tumor volume at each measurement in the treatment group; TVinitial(T) represents the tumor volume of the treatment group at the time of grouping administration; TVt(C) represents the tumor volume at each measurement in the solvent control group; TVinitial(C) represents the tumor volume of the solvent control group at the time of grouping administration.
wherein, WC represents the tumor weight of the control group; WT represents the tumor weight of the treatment group.

[2] = tested on: hepatocellular carcinoma tumor cells Huh7; test: Huh7 tumor cell proliferation inhibition (CCK-8); type: cell-based, human; details: 72 hours culture
Protocol: For the FGFR4 subtype, hepatocellular carcinoma tumor cells Huh7 (purchased from the Cell Resource Center of Shanghai Institutes for Biological Sciences, Chinese Academy of Sciences) were used to determine the inhibition against the activity of hepatocellular carcinoma tumor cells. Huh7 cells were cultured in a DMEM medium containing 10% of fetal bovine serum, 100 U of penicillin and 100 μg/mL of streptomycin. Cultured in an incubator of 37° C., 5% CO2. Hepatocellular carcinoma tumor cell activity was measured by using a kit of Cell Counting Kit-8 (Dojindo, Dojindo Molecular Technologies, Inc).
The experimental method was carried out according to the steps of the kit instructions, and is briefly described as follows: the test compound was first dissolved in DMSO to prepare a stock solution, and then gradiently diluted with the corresponding medium of the cells to prepare a test sample, and the final concentration of the compound was in the range of 30 μM to 0.01 nM. Tumor cells in the logarithmic phase were seeded into 96-well cell culture plates at a suitable density, cultured in an incubator of 37° C., 5% CO2 overnight, then test compound samples were added and continued to culture the cells for 72 hours.

[3] = Body weight and weight loss rate of Huh7 tumor-bearing BALB/c nude mice during administration; type: in vivo; details: 25 mg/kg IP, bid
Protocol: as §1
The calculation formula for the weight loss rate of animals is (see FIG. 3 for the results): Weight loss rate of animals=100%×(BWinitial−BWt)/BWinitial
wherein, BWt represents the body weight of the animal at each measurement during administration; BWinitial represents the body weight of the animal at the time of grouping administration.

[4] = 25 mg/kg IP, end of the experiment

C=CC(=O)Nc1cc(N2CCN(CC)C3(CC3)C2)ccc1Nc1cc(N(C)C(=O)Nc2c(Cl)c(OC)cc(OC)c2Cl)ncn1 [Example 5, N-(2-((6-(3-(2,6-Dichloro-3,5-dimethoxyphenyl)-1-methylureido)pyrimidin-4-yl)amino)-5-(4-ethyl-4,7-diazaspiro[2.5]octan-7-yl)phenyl)acrylamide]
Tumor weight (g) Mean ± standard error [1, 4]: 0.8393 ± 0.0602 g
Tumor weight (g) Mean ± standard error ([1]; 50 mg/kg IP, end of the experiment): 0.6473 ± 0.0597 g
Tumor weight (g) Mean ± standard error ([1]; 300 mg/kg PO, end of the experiment): 0.0562 ± 0.0069 g

C=CC(=O)Nc1cc(N2CCN(CC)CC2)ccc1Nc1cc(N(C)C(=O)Nc2c(Cl)c(OC)cc(OC)c2Cl)ncn1 [Example 108 of WO2015057938, reference compound]
Tumor growth inhibition rate (TGI %) ([1]; 25 mg/kg IP, Day 16 after inoculation): 34%
Tumor growth inhibition rate (TGI %) ([1]; 25 mg/kg IP, Day 20 after inoculation): 21%
Tumor growth inhibition rate (TGI %) ([1]; 25 mg/kg IP, Day 23 after inoculation): 21%
Tumor growth inhibition rate (TGI %) ([1]; 25 mg/kg IP, Day 27 after inoculation): 29%
Tumor growth inhibition rate (TGI %) ([1]; 25 mg/kg IP, Day 30 after inoculation): 24%
Tumor growth inhibition rate (TGI %) ([1]; 25 mg/kg IP, Day 34 after inoculation): 16%
Tumor weight (g) Mean ± standard error [1, 4]: 0.9106 ± 0.0583 g
Tumor weight inhibition rate (%) [1, 4]: 2.2%
IC50 [2]: 18 nM
Animal body weight ± standard error ([3]; Day 13 after inoculation): 18.0 ± 0.3 g
weight loss rate (%) ([3]; Day 13 after inoculation): 0%
Animal body weight ± standard error ([3]; Day 16 after inoculation): 18.1 ± 0.3 g
weight loss rate (%) ([3]; Day 16 after inoculation): −0.62%
Animal body weight ± standard error ([3]; Day 20 after inoculation): 19.2 ± 0.4 g
weight loss rate (%) ([3]; Day 20 after inoculation): −6.7%
Animal body weight ± standard error ([3]; Day 23 after inoculation): 18.3 ± 0.2 g
weight loss rate (%) ([3]; Day 23 after inoculation): −2.0%
Animal body weight ± standard error ([3]; Day 27 after inoculation): 18.4 ± 0.3 g
weight loss rate (%) ([3]; Day 27 after inoculation): −2.7%
Animal body weight ± standard error ([3]; Day 30 after inoculation): 18.7 ± 0.2 g
weight loss rate (%) ([3]; Day 30 after inoculation): −4.2%
Animal body weight ± standard error ([3]; Day 34 after inoculation): 18.9 ± 0.3 g
weight loss rate (%) ([3]; Day 34 after inoculation): −5.0%
